Assay results: patent US20140206681A1, “BTK INHIBITORS” (priority 2013, published 2014)
Where two headings read alike, the source gives them in different places.

Target: T1, BTK enzyme (recombinant full-length BTK, hBTK) (Homo sapiens, UniProt Q06187)
T1 construct: recombinant protein from baculovirus-transfected Sf9 cells: full-length BTK, 6HIS-tag cleaved; 6HIS (cleaved yes); made in house; host or cells: baculovirus-transfected Sf9 cells
Assay: BTK enzyme activity assay, LANCE TR-FRET
Assay type: biochemical
Conditions: 50 pM hBTK, 2 μM biotin-A5-peptide, 25 μM ATP, 60 min compound & enzyme incubation

[1] = read-out: IC50 BTK activity value

T1 sequence (Q06187 whole entry): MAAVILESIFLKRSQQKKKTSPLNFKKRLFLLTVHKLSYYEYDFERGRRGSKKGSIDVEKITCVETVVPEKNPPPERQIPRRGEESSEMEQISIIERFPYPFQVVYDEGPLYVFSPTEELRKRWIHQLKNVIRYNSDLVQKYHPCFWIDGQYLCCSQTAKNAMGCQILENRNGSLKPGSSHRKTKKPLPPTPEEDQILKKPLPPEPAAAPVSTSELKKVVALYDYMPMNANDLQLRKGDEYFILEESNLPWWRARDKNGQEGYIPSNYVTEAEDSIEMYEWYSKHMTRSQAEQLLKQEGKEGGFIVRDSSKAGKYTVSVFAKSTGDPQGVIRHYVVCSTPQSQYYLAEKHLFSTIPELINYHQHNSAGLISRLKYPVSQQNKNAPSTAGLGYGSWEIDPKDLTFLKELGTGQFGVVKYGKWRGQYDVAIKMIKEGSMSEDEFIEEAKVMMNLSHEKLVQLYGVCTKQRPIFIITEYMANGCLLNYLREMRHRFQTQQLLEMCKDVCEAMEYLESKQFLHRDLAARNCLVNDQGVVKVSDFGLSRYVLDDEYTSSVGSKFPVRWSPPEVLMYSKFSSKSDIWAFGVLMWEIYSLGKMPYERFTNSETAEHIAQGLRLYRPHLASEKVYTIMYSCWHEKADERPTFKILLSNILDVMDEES

Row | Compound | IC50 [1] | IC50 (IC50 BTK activity value)
1 | Nc1nccn2c([C@H]3CC[C@@H]4COC(=O)N4C3)nc(-c3ccc(C(=O)Nc4cc(C(F)(F)F)ccn4)cc3F)c12 (stereo in doubt) [Example 13, 4-(8-amino-3-((6S,8aR)-3-oxohexahydro-1H-oxazolo[3,4-a]pyridin-6-yl)imidazo[1,5-a]pyrazin-1-yl)-3-fluoro-N-(4-(trifluoromethyl)pyridin-2-yl)benzamide] | 1.3 nM | –
2 | Nc1nccn2c([C@H]3CC[C@H]4COC(=O)N4C3)nc(-c3ccc(C(=O)Nc4cc(C(F)(F)F)ccn4)cc3)c12 [Example 1, 4-(8-amino-3-((6S,8aS)-3-oxohexahydro-1H-oxazolo[3,4-a]pyridin-6-yl)imidazo[1,5-a]pyrazin-1-yl)-N-(4-(trifluoromethyl)pyridin-2-yl)benzamide] | – | 5.5 nM
3 | Nc1nccn2c([C@@H]3CC[C@@H]4COC(=O)N4C3)nc(-c3ccc(C(=O)Nc4cc(C(F)(F)F)ccn4)cc3)c12 [Example 2, 4-(8-amino-3-((6R,8aR)-3-oxohexahydro-1H-oxazolo[3,4-a]pyridin-6-yl)imidazo[1,5-a]pyrazin-1-yl)-N-(4-(trifluoromethyl)pyridin-2-yl)benzamide] | – | 15.6 nM
4 | Nc1nccn2c([C@@H]3CC[C@H]4CCC(=O)N4C3)nc(-c3ccc(C(=O)Nc4cc(OC5CC5)ccn4)cc3)c12 [Example 5, 4-(8-amino-3-((6R,8aS)-3-oxooctahydroindolizin-6-yl)imidazo[1,5-a]pyrazin-1-yl)-N-(4-cyclopropoxypyridin-2-yl)benzamide] | 0.24 nM | –
5 | Nc1nccn2c([C@@H]3CC[C@H]4CCC(=O)N4C3)nc(-c3ccc(C(=O)Nc4cc(C5CCC5)ccn4)cc3)c12 [Example 7, 4-(8-amino-3-((6R,8aS)-3-oxooctahydroindolizin-6-yl)imidazo[1,5-a]pyrazin-1-yl)-N-(4-cyclobutylpyridin-2-yl)benzamide] | 60.6 nM | –
6 | Nc1nccn2c([C@@H]3CC[C@H]4COC(=O)N4C3)nc(-c3ccc(C(=O)Nc4cc(C(F)(F)F)ccn4)cc3F)c12 [Example 12, 4-(8-amino-3-((6R,8aS)-3-oxohexahydro-1H-oxazolo[3,4-a]pyridin-6-yl)imidazo[1,5-a]pyrazin-1-yl)-3-fluoro-N-(4-(trifluoromethyl)pyridin-2-yl)benzamide] | 0.083 nM | –
7 | Nc1nccn2c([C@@H]3CC[C@H]4CCC(=O)N4C3)nc(-c3ccc(C(=O)Nc4cc(C(F)F)ccn4)cc3F)c12 [Example 14, 4-{8-amino-3-[(6R,8aS)-3-oxooctahydroindolizin-6-yl]imidazo[1,5-a]pyrazin-1-yl}-N-[4-(difluoromethyl)pyridin-2-yl]-3-fluorobenzamide] | 0.12 nM | –
8 | Nc1nccn2c([C@@H]3CC[C@H]4CCC(=O)N4C3)nc(-c3ccc(C(=O)Nc4cc(C(F)F)ccn4)cc3)c12 [Example 17] | 0.31 nM | –
9 | Cc1cc(-c2nc([C@@H]3CC[C@H]4CCC(=O)N4C3)n3ccnc(N)c23)ccc1C(=O)Nc1cc(C(F)(F)F)ccn1 [Example 22, 4-{8-amino-3-[(6R,8aS)-3-oxooctahydroindolizin-6-yl]imidazo[1,5-a]pyrazin-1-yl}-2-methyl-N-[4-(trifluoromethyl)pyridin-2-yl]benzamide] | 0.41 nM | –
10 | CC(F)(F)c1ccnc(NC(=O)c2ccc(-c3nc([C@@H]4CC[C@H]5CCC(=O)N5C4)n4ccnc(N)c34)cc2F)c1 [Example 25, 4-{8-amino-3-[(6R,8aS)-3-oxooctahydroindolizin-6-yl]imidazo[1,5-a]pyrazin-1-yl}-N-[4-(1,1-difluoroethyl)pyridin-2-yl]-2-fluorobenzamide] | 0.54 nM | –
11 | Nc1nccn2c([C@@H]3CC[C@H]4CCC(=O)N4C3)nc(-c3ccc(C(=O)Nc4cc(C(F)F)ccn4)c(F)c3)c12 [Example 26, 4-{8-amino-3-[(6R,8aS)-3-oxooctahydroindolizin-6-yl]imidazo[1,5-a]pyrazin-1-yl}-N-[4-(difluoromethyl)pyridin-2-yl]-2-fluorobenzamide] | 1.5 nM | –
12 | Nc1nccn2c([C@@H]3CC[C@H]4CCC(=O)N4C3)nc(-c3ccc(C(=O)Nc4cc(C5CC5)ccn4)c(F)c3)c12 [Example 27, 4-{8-amino-3-[(6R,8aS)-3-oxooctahydroindolizin-6-yl]imidazo[1,5-a]pyrazin-1-yl}-N-(4-cyclopropylpyridin-2-yl)-2-fluorobenzamide] | 1.1 nM | –
13 | Cc1cc(-c2nc([C@@H]3CC[C@H]4CCC(=O)N4C3)n3ccnc(N)c23)ccc1C(=O)Nc1cc(C2CC2)ccn1 [Example 28, 4-{8-amino-3-[(6R,8aS)-3-oxooctahydroindolizin-6-yl]imidazo[1,5-a]pyrazin-1-yl}-N-(4-cyclopropylpyridin-2-yl)-2-methylbenzamide] | 0.64 nM | –
14 | Nc1nccn2c([C@@H]3CC[C@H]4CCC(=O)N4C3)nc(-c3ccc(C(=O)Nc4cc(C5(F)COC5)ccn4)cc3)c12 [Example 29, 4-{8-amino-3-[(6R,8aS)-3-oxooctahydroindolizin-6-yl]imidazo[1,5-a]pyrazin-1-yl}-N-[4-(3-fluorooxetan-3-yl)pyridin-2-yl]benzamide] | 1.9 nM | –
15 | CC(C)(F)c1ccnc(NC(=O)c2ccc(-c3nc([C@@H]4CC[C@H]5CCC(=O)N5C4)n4ccnc(N)c34)cc2)c1 [Example 30, 4-{8-amino-3-[(6R,8aS)-3-oxooctahydroindolizin-6-yl]imidazo[1,5-a]pyrazin-1-yl}-N-[4-(1-fluoro-1-methylethyl)pyridin-2-yl]benzamide] | 0.85 nM | –
16 | C[C@H]1OC(=O)N2C[C@H](c3nc(-c4ccc(C(=O)Nc5cc(C6CC6)ccn5)cc4F)c4c(N)nccn34)CC[C@@H]12 [Example 32, 4-{8-amino-3-[(1R,6R,8aS)-1-methyl-3-oxohexahydro[1,3]oxazolo[3,4-a]pyridin-6-yl]imidazo[1,5-a]pyrazin-1-yl}-N-(4-cyclopropylpyridin-2-yl)-3-fluorobenzamide] | 0.21 nM | –
17 | N#Cc1ccnc(NC(=O)c2ccc(-c3nc([C@@H]4CC[C@H]5CCC(=O)N5C4)n4ccnc(N)c34)cc2F)c1 [Example 34, 4-{8-amino-3-[(6R,8aS)-3-oxooctahydroindolizin-6-yl]imidazo[1,5-a]pyrazin-1-yl}-N-(4-cyanopyridin-2-yl)-2-fluorobenzamide] | 2.5 nM | –
18 | COc1cc(C(=O)Nc2cc(C#N)ccn2)ccc1-c1nc([C@@H]2CC[C@H]3CCC(=O)N3C2)n2ccnc(N)c12 [Example 35, 4-{8-amino-3-[(6R,8aS)-3-oxooctahydroindolizin-6-yl]imidazo[1,5-a]pyrazin-1-yl}-N-(4-cyanopyridin-2-yl)-3-methoxybenzamide] | 1.1 nM | –
19 | Cc1cc(-c2nc([C@@H]3CC[C@H]4CCC(=O)N4C3)n3ccnc(N)c23)ccc1C(=O)Nc1cc(C#N)ccn1 [Example 36, 4-{8-amino-3-[(6R,8aS)-3-oxooctahydroindolizin-6-yl]imidazo[1,5-a]pyrazin-1-yl}-N-(4-cyanopyridin-2-yl)-2-methylbenzamide] | 0.98 nM | –
20 | C[C@@H]1OC(=O)N2C[C@H](c3nc(-c4ccc(C(=O)Nc5cc(C6CC6)ccn5)cc4F)c4c(N)nccn34)CC[C@@H]12 [Example 37, 4-{8-amino-3-[(1S,6R,8aS)-1-methyl-3-oxohexahydro[1,3]oxazolo[3,4-a]pyridin-6-yl]imidazo[1,5-a]pyrazin-1-yl}-N-(4-cyclopropylpyridin-2-yl)-3-fluorobenzamide] | 0.39 nM | –
